Data reported in patent US20220362222A1, “ONCE DAILY FORMULATIONS OF TACROLIMUS” (TFF Pharmaceuticals, Inc., priority 2021, published 2022).

How the values were obtained:
[1] = cited from earlier work
[2] = Pharmacokinetics of inhaled tacrolimus in healthy volunteers, 1 mg BID repeat dose group (Part B); type: in vivo, human
Protocol: The study is a blinded, randomized, placebo-controlled, multiple dose, dose-escalation study. Part B begins once the first three cohorts of Part A have completed and safety data has been reviewed. Twenty-four (24) healthy adult male and female (women of non-child-bearing potential only) subjects were enrolled. Eight (8) subjects were assigned to each of three dose levels (1.0 mg BID, 0.5 mg BID, or QD dose of either 1.0, 1.5, or 2.0mg, as determined by the SMC at the conclusion of Cohort 2 and after examining the safety and TDM data from that cohort) with six (6) subjects per cohort receiving tacrolimus inhalation and two (2) subjects receiving placebo.
Screening of subjects occurred within 28 days prior to the first dose administered. Study subjects were randomized to receive either a placebo or tacrolimus inhalation powder by inhalation. The subject assignment were blinded to the investigator, study coordinators and study subjects. Subjects were automatically replaced if they discontinue the study prior to dosing. On Day 1, subjects in each cohort begins receiving tacrolimus or placebo administered twice a day (every 12 hours) for Cohorts 1 and 2, and tacrolimus or placebo administered once per day (every 24 hours) for Cohort 3,through the Plastiape® inhaler. Blood samples and safety measurements were performed over 1 week as scheduled. […]
PK parameters for plasma tacrolimus are calculated as follows, as appropriate: AUC0-24: The area under the concentration-time curve, from time 0 to the 24-hour time point, as calculated by the linear trapezoidal method. If the 24-hour plasma concentration is missing, below the limit of quantification or not reportable, then this parameter will not be calculated. AUC0-t: The area under the concentration-time curve, from time 0 to the last observed non-zero concentration, as calculated by the linear trapezoidal method. […] AUC0-inf is calculated as the sum of AUC0-t plus the ratio of the last measurable plasma concentration to the elimination rate constant. […] CL/F Apparent total body clearance after oral administration, calculated as Dose/AUC0-inf. […] Kel: Apparent first-order terminal elimination rate constant calculated from a semi-log plot of the plasma concentration versus time curve. The parameter will be calculated by linear least-squares regression analysis using the maximum number of points in the terminal log-linear phase (e.g., three or more non-zero plasma concentrations). t1/2: Apparent first-order terminal elimination half-life are calculated as 0.693/Kel. Vz/F: Apparent volume of distribution during the terminal elimination phase after oral administration, calculated as […]. […]

[3] = oral administration, cited from earlier work
[4] = inhalation 1 mg BID, healthy volunteers

C=CC[C@@H]1/C=C(\C)C[C@H](C)C[C@H](OC)[C@H]2O[C@@](O)(C(=O)C(=O)N3CCCC[C@H]3C(=O)O[C@H](/C(C)=C/[C@@H]3CC[C@@H](O)[C@H](OC)C3)[C@H](C)[C@@H](O)CC1=O)[C@H](C)C[C@@H]2OC [tacrolimus, (1R,9S,12S,13R,14S,17R,18E,21S,23S,24R,25S,27R)-1,14-dihydroxy-12-[(E)-1-[(1R,3R,4R)-4-hydroxy-3-methoxycyclohexyl]prop-1-en-2-yl]-23 ,25-dimethoxy-13,19,21,27-tetramethyl-17-prop-2-enyl-11,28-dioxa-4-azatricyclo [22.3.1.0^4.8]octacos-18-ene-2,3,10,16-tetrone]
solubility in water [1]: practically insoluble in water
tacrolimus plasma exposure, actual arithmetic mean ([2]; inhalation 1 mg BID repeat dose, healthy volunteers, preliminary): 45 ng/mL
actual trough values at 12 hours post dose compared with simulated exposure ([2]; inhalation 1 mg BID, Day 1 and Day 7): closer to the upper 90% confidence interval for simulated exposure
Cmin (trough) concentrations at 12 h compared with oral PK model [2, 4]: slightly higher than predicted
observed Cmax compared with oral PK model [2, 4]: lower than predicted
absorption ([3]; Prograf label): < 25%
variability of absorption (%CV range) ([3]; depending on the study): 28-58%
